Reference: paper PMC12354831 (Cell Death Discovery, 2025)

How the values were obtained:
[1] = system: U87-MG cells; assay: CCK-8 IC50 determination in U87-MG cells with or without GLUT3 KD; format: cell-based, human; details: GLUT3 KD vs control, CCK-8, 24 h drug treatment
Procedure: (§1) The GBM cell line was seeded into a 96-well plate at a density of 5 × 10^3 cells per well and incubated at 37 °C in a humidified atmosphere containing 5% CO2 overnight. […] Following 24 h of drug treatment, 10 µL of CCK-8 reagent was added to each well, and the cells were incubated for an additional 1 h at 37 °C. The absorbance was then measured at 450 nm using a microplate reader.
(§2) In this study, the experimental groups were designated as Group A (cells treated with temozolomide (TMZ) or capecitabine (CAPE)), the control group as Group B (cells treated with DMSO), and the blank control group as Group C ([…]). The cell viability rate was calculated using the formula: (A-C)/(B-C) × 100%, where A, B, and C represent the absorbance values of Group A, Group B, and Group C, respectively.

[2] = system: U251-MG cells; assay: CCK-8 IC50 determination in U251-MG cells with or without GLUT3 OE; format: cell-based, human; details: GLUT3 OE vs control, CCK-8, 24 h drug treatment
Procedure: as §1, §2

fold increase of IC50 on GLUT3 knockdown [1]	reduction of IC50 in GLUT3 overexpressing cells compared to control cells [2]	Structure (SMILES)
~ 1.6 fold	~ 81.7%	Nc1ccn([C@@H]2O[C@H](CO)[C@@H](O)C2(F)F)c(=O)n1 [GEM, gemcitabine]
4.3 fold		Nc1ccn([C@@H]2O[C@H](CO)[C@@H](O)[C@@H]2O)c(=O)n1 [cytarabine]
